Reference: US20240325330A1, “NEW METHOD TO TREAT ACIDOSIS RELATED DISEASES WITH ACETOACETATE” (INSTITUT NATIONAL DE LA SANTÉ ET DE LA RECHERCHE MÉDICALE, priority 2021, published 2024)

Assays:
[1] = tested on: human monocytes differentiated into macrophages under lactic acidosis (LA-Mφ); assay: Intracellular ATP levels in macrophages under lactic acidosis; assay type: cell-based; settings: 5 mM AcAc, 10 mM lactic acid, FIG. 1A
Protocol: Peripheral blood mononuclear cells (PBMC) were obtained from healthy human volunteers (Blood collection center, Angers, France; agreement ANG-2017-01) by standard density-gradient centrifugation on lymphocyte separation medium (Eurobio, Courtaboeuf, France). CD14+ monocytes were then isolated by positive magnetic cell-sorting (Miltenyi Biotec, Bergisch Gladbach, Germany). […]
The intracellular levels of ATP in whole-cell lysates were determined with enzymatic assays (Abcam, Cambridge, UK), according to the manufacturer's instructions. ATP was quantified in (i) macrophages generated in the absence (Mφ) or presence of lactic acid (LA-Mφ) or of lactic acid and acetoacetate (LA-Mφ+AcAc), (ii) macrophages with or without depolarized mitochondria (“Depol” and “Pol” populations, respectively) isolated from day 3 LA-Mφ by flow cytometry using MitoTracker Green and MitoTracker Deep Red probes (purity>99%) and, (iii) PBMC isolated from septic shock patients (n=3) were cultured for 24 h in a medium containing 0.5 g/L glucose, supplemented with 5 mM of acetoacetate (AcAc) or with 2 g/L of glucose (Glc). […]

[2] = tested on: human monocytes differentiated into macrophages under lactic acidosis (LA-Mφ); assay: Mitochondrial network architecture, morphology and size (confocal microscopy, TEM); assay type: cell-based; settings: 5 mM AcAc, 10 mM lactic acid; compared with Mφ; data not shown
Protocol: Peripheral blood mononuclear cells (PBMC) were obtained from healthy human volunteers (Blood collection center, Angers, France; agreement ANG-2017-01) by standard density-gradient centrifugation on lymphocyte separation medium (Eurobio, Courtaboeuf, France). CD14+ monocytes were then isolated by positive magnetic cell-sorting (Miltenyi Biotec, Bergisch Gladbach, Germany). Monocytes (1×10^6 cells/mL) were cultured in complete medium (CM) consisting of RPMI 1640 (Lonza, Verviers, Belgium) supplemented with 10% fetal calf serum (FCS) (Eurobio), 2 mM L-glutamine, 1 mM sodium pyruvate, 0.1 mM non-essential amino acids, 10 mM HEPES, 100 U/mL penicillin and 100 μg/mL streptomycin (all from Lonza) in the presence of 50 ng/mL GM-CSF (R&D Systems, Minneapolis, MN). […]
Cells were first incubated with 150 nM MitoTracker Green (Thermo Fisher Scientific) in CM medium at 37° C. for 10 min. […] Image blobs were then analyzed with the regionprops function of Matlab.
We fixed 5×10^6 macrophages by incubation for 16 h at 4° C. with 2.5% electron-grade glutaraldehyde (LFD Distribution, Sainte Consorce, France) in 0.1 M phosphate buffer pH 7.4. […] Stitched images were reviewed and scored by a trained electron histopathologist for the presence of autophagy and mitophagy vacuoles. Mitochondrial size was determined by measuring the maximum Feret diameter on TEM images.

[3] = tested on: human monocytes differentiated into macrophages under lactic acidosis (LA-Mφ); assay: Metabolite quantification in culture supernatants and acetyl-CoA in lysates; assay type: cell-based
Protocol: (§1) Peripheral blood mononuclear cells (PBMC) were obtained from healthy human volunteers (Blood collection center, Angers, France; agreement ANG-2017-01) by standard density-gradient centrifugation on lymphocyte separation medium (Eurobio, Courtaboeuf, France). CD14+ monocytes were then isolated by positive magnetic cell-sorting (Miltenyi Biotec, Bergisch Gladbach, Germany). Monocytes (1×10^6 cells/mL) were cultured in complete medium (CM) consisting of RPMI 1640 (Lonza, Verviers, Belgium) supplemented with 10% fetal calf serum (FCS) (Eurobio), 2 mM L-glutamine, 1 mM sodium pyruvate, 0.1 mM non-essential amino acids, 10 mM HEPES, 100 U/mL penicillin and 100 μg/mL streptomycin (all from Lonza) in the presence of 50 ng/mL GM-CSF (R&D Systems, Minneapolis, MN).
(§2) Experiments were performed in the presence of 10 mM lactic acid (Sigma-Aldrich, St Louis, MO) resulting in a pHe of 6.5 to generate LA-Mφ (lactic acidosis conditioning), 12.35 mM HCl to reach a final pHe of 6.5 and to generate HCl-Mφ(acidosis conditioning), 10 mM sodium lactate (Sigma-Aldrich) to generate lactate-Mφ (lactosis conditioning, pH 7.3), in the absence or presence of 5 mM lithium acetoacetate (AcAc) (Sigma-Aldrich, St Louis, MO).
The levels of glucose, glutamine, free L-amino acids and lactate in cell culture supernatants, and of acetyl-CoA in whole-cell lysates were determined, together with the intracellular ADP/ATP ratio, with enzymatic assays (Abcam), according to the manufacturer's instructions. […] Acetoacetate concentrations were quantified with β-hydroxybutyrate dehydrogenase (3-HBDH) (Roche Applied Science), an enzyme that catalyzes the reversible reduction of acetoacetate to β-hydroxybutyrate in the presence of excess NADH, with the concomitant oxidation of NADH. The progress of the reaction was monitored by measuring the decrease in 340 nm absorbance due to the conversion of NADH into NAD. AcAc consumption was determined by subtracting the concentration of AcAc in cell culture supernatants from that in cell-free culture supernatants.

[4] = tested on: human monocyte-derived macrophages (Mφ, LA-Mφ); assay: Cytokine secretion after LPS stimulation (ELISA); assay type: cell-based; settings: day 5, LPS 16 h, FIG. 3
Protocol: as §1, §2
Day 5 GM-Mϕ, GM+LA-Mϕ and GM+LA-Mϕ+AcAc were stimulated with 200 ng/mL LPS (Sigma-Aldrich). Cytokines were quantified by ELISA (R&D Systems) in the supernatants collected at 16 h.

[5] = tested on: PBMC from septic shock patients; assay: Apoptosis of PBMC from septic shock patients (7-AAD, Annexin-V flow cytometry); assay type: cell-based, human; settings: 5 mM AcAc, FIG. 4E
Protocol: Apoptosis was assessed by flow cytometry in freshly purified PBMC or after 3-day culture with or without AcAc. Cells were labeled with 7-AAD, Annexin-V FITC and anti-CD14 APC monoclonal antibody (all from BD Biosciences, San Jose, CA) and apoptotic monocytes were defined as CD14+ Annexin-V+ cells.
Peripheral blood mononuclear cells (PBMC) from septic patients and healthy subjects were purified by standard density-gradient centrifugation on lymphocyte separation medium (Eurobio, Courtaboeuf, France). PBMC were cultured for 24 h in a medium consisting of RPMI 1640 medium with L-glutamine and without glucose (Lonza, Verviers, Belgium) and supplemented with 6% FCS (Eurobio), 3% autologous plasma, 0.5 g/L glucose, 100 U/mL penicillin and 100 μg/mL streptomycin (all from Lonza) in the presence of 2 ng/mL GM-CSF (R&D Systems). In some experiments, the culture medium was supplemented with 5 mM AcAc or adjusted to 4 g/L glucose. After 24 h culture, the percentage of cells with depolarized mitochondria was assessed as described above. After 3 days of culture, intracellular ATP has been quantified as described above.

With `CC(=O)CC(=O)[O-].[Li+]` [AcAc, lithium acetoacetate] the “intracellular levels of ATP” value [1] was “restored the intracellular levels of ATP”, the “mitochondrial network architecture (morphology and size)” value [2] was “protected the mitochondrial network architecture” and the “uptake of glucose and amino acids and production of lactate” value ([3]; LA-Mφ in the presence of 5 mM AcAc, FIG. 2A-D) was “retain a partial capacity to take up glucose and amino acids and to produce lactate”. For the same molecule, the “AcAc consumption by cells” value ([3]; LA-Mφ+AcAc culture supernatants, days 1 and 3, FIG. 2F) was “consume AcAc”, the “intracellular AcCoA levels” value ([3]; reduction induced by LA, in the presence of 5 mM AcAc) was “prevented the reduction of intracellular AcCoA levels” and the “combined effect of AcAc and lactic acid on capacity to produce inflammatory cytokines and trophic factors” value ([4]; LA-Mφ+AcAc) was “acted synergistically”. The “cytokine phenotype of monocytes differentiated in the presence of AcAc” value ([4]; ELISA) was “TNFαhigh IL-1βhigh IL-6high OSMhigh and VEGFhigh phenotype” and the “protection of patient PBMCs from death by apoptosis” value [5] was “drastically protects”.
